Experiments:
[1] = Tested for the stability in water after 24h, activity expressed as percentage hydrolysis; type: physicochemical; details: read-out: Hydrolysis
[2] = Tested for the stability in water after 6h, activity expressed as percentage hydrolysis; type: physicochemical; details: read-out: Hydrolysis

Structure (SMILES) | degraded at 24 h [1] [%] | degraded at 6 h [2] [%]
CC(C)C(=O)Oc1cc2c(cc1OC(=O)C(C)C)CC(N)CC2 (stereo not drawn) | 0.23 | 0.06
CC(C)(C)C(=O)Oc1cc2c(cc1OC(=O)C(C)(C)C)CC(N)CC2 (stereo not drawn) | 0.02 | 0.01
CC(=O)Oc1cc2c(cc1OC(C)=O)CC(N)CC2 (stereo not drawn) | 3.74 | 1.64
NC1CCc2cc(OC(=O)c3ccccc3)c(OC(=O)c3ccccc3)cc2C1 (stereo not drawn) | 0.06 | 0.03
